Among the data in ChEMBL document CHEMBL5728092, “Benzimidazole derivatives as modulators of ROR-gamma” (2020) are Ki values, retold here.

A word on the Ki: it is a measure of affinity in units of concentration, obtained from inhibition or displacement.

In the assay the target is T1, Nuclear receptor ROR-gamma (Homo sapiens, UniProt P51449).
T1 sequence (P51449 whole entry): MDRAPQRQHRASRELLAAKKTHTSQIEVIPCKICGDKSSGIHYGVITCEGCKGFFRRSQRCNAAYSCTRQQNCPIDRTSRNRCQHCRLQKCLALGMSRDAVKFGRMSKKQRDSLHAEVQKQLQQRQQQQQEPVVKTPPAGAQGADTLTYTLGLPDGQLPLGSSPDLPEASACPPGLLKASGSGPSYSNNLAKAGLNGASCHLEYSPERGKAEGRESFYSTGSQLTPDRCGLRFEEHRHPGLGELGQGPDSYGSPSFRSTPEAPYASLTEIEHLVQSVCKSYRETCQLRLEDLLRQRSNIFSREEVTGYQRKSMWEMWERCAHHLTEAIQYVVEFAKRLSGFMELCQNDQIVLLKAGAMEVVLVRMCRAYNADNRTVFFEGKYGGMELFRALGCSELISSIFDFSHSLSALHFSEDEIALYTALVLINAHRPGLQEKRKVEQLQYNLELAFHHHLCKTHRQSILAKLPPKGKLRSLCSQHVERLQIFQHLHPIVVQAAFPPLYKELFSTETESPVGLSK
Put plainly: Binding Assay : Compounds described herein were tested for ability to bind to RORγ in a cell-free competition assay with commercially available radio-ligand (RL), 25-hydroxy [26,27-3H]-cholesterol (PerkinElmer, Cat. #NET674250UC), for a ligand binding site on a recombinant RORγ Ligand Binding Domain (LBD) protein expressed as a 6×His-Glutathione-S-Transferase (GST) fusion. The assay was performed in 96-well SPA plates (PerkinElmer, Cat. #1450-401) in 50 mM HEPES buffer, pH 7.4, containing 150 mM NaCl, 5 mM MgCl2, 10% (v/v) glycerol, 2 mM CHAPS, 0.5 mM β-octylglucopyranoside and 5 mM DTT. Tested compounds were dissolved in DMSO, and semi-log (3.162×) serial dilutions of the compounds were prepared in the same solvent. Two μL of the DMSO solutions were mixed with 28 μL of 8.6 nM 25-hydroxy [26,27-3H]-cholesterol and 50 μL of 24 nM RORγ LBD. The plate was shaken at 700 rpm for 20 min and incubated for 10 min at rt, after which 40 μL of poly-Lys YSi SPA beads (PerkinElmer, Cat. #RPNQ0010) were added to achieve […] of the beads per well. The plate was incubated on an orbital shaker for 20 min and then for 10 min without agitation at rt. SPA signal for tritium beta radiation was registered on PerkinElmer Microbeta plate reader. Percent inhibition values were calculated based on the high signal obtained with DMSO control and the low signal observed with 10 μM standard RORγ inverse agonist T0901317 (SigmaAldrich, Cat. #T2320). The percent inhibition vs. concentration data were fit into a four-parameter model, and IC50 values were calculated from the fit as the concentrations corresponding to the inflection points on the dose-response curves.
With `CCS(=O)(=O)c1ccc(CNC(=O)c2ccc3c(c2)nc(C(F)(F)F)n3Cc2cccc3c2OC(F)(F)O3)[n+]([O-])c1`, the Ki was less than 0.1 µM.

As to `CCS(=O)(=O)c1ccc([C@H](CO)NC(=O)c2ccc3c(c2)nc(C2(F)CCC2)n3Cc2cccc3c2OC(F)(F)O3)cc1`, the Ki was less than 0.1 µM.

For the molecule `CCS(=O)(=O)c1ccc([C@H](CO)NC(=O)c2ccc3c(c2)nc(C2CC2)n3Cc2cccc3c2OC(F)(F)O3)cc1`, the Ki is less than 0.1 µM.
